Assay results taken from US6893821B2, “Agents that modulate DNA-PK activity and methods of use thereof” (The Regents of the University of California, priority 2000, dated 2005).

Columns and labels:
HSP70 = assay: RT-PCR for induction of heat shock protein gene transcription in BMDM; assay type: cell-based, mouse
Method: A half million mouse BMDM isolated from BALB/c, IFNα receptor knockout, or IFNγ knockout mice were incubated with ISS-ODN or M-ODN at a final concentration of 10 μg/ml. After 0, 1, 2, 4, 6, and 8 hours, total RNA was prepared and analyzed by RT-PCR (reverse transcription-polymerase chain reaction) for induction of gene transcription of heat shock proteins. The sequences of the primers used is as follows: […]

[1] = biological target: T1, Ku antigen (Ku70/Ku80 heterodimer) (Mus musculus, UniProt P23475+P27641); assay: EMSA inhibition study: cold ODN vs [32P]-labeled ds-ISS-ODN binding to Ku (affinity column fraction 20)
T1 construct: from tissue; host or cells: mouse liver (BALB/c)
T1 sequence (P23475 2-608 limits assumed): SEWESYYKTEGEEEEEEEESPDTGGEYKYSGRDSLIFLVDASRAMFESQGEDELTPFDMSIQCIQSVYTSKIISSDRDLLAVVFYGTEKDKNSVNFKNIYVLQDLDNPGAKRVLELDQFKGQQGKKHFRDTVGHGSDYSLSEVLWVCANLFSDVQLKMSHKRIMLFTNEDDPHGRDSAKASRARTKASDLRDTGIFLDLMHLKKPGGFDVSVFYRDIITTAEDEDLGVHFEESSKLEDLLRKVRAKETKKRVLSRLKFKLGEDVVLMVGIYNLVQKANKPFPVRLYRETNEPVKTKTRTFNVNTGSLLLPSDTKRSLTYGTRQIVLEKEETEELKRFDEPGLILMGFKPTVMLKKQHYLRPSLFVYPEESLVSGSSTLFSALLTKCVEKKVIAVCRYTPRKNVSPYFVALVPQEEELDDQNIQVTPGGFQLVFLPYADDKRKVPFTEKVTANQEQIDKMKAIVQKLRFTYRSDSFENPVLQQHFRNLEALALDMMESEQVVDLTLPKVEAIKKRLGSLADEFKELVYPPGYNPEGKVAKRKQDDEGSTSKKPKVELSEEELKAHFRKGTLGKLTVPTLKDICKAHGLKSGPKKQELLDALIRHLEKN
T1 sequence (P27641 whole entry): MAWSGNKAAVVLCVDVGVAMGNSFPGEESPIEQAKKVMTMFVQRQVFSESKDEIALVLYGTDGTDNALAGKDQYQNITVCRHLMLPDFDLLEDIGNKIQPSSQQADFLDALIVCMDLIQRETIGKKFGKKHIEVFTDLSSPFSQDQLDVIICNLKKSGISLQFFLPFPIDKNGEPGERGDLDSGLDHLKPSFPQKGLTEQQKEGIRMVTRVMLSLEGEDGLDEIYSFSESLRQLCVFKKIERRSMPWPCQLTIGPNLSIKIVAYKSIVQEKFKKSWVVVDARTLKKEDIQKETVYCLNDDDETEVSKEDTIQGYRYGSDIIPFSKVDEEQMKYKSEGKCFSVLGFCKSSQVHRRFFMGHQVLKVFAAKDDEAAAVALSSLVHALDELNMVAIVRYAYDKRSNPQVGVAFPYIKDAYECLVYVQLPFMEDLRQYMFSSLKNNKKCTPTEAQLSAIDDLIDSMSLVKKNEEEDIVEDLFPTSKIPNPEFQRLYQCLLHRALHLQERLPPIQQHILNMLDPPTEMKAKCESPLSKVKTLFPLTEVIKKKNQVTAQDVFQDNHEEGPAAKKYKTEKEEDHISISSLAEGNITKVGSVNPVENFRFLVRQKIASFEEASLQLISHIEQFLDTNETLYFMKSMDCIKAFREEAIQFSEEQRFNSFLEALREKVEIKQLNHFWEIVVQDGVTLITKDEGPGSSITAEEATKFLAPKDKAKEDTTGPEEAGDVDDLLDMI
Method: Purification of the ISS binding protein was accomplished by sequential ion exchange, heparin and ISS-ODN affinity chromatography, as follows. Due to the relative small tissue weight per spleen, liver lysate was used after confirming its reactivity to in vivo ISS injection, as described above. Crude liver extracts from 220 mice (BALB/c, Jackson Lab., Bar Harbour, Me.) or 15 New Zealand White rabbits (Simunek, Vista, Calif.) were prepared in homogenization buffer (20 mM HEPES, pH 7.6, 250 mM KCl, 0.1 mM EDTA, 0.5 mM EGTA, 20% glycerol) with 250 mM KCl and protease and phosphatase inhibitors and then centrifuged at 100,000×g for 1.5 hours at 4° C. The supernatant (400 ml) was filtered and loaded onto a Porous 20 QE column (17 ml, Pharmacia). Two μl (10 μg) of each fraction were used in a gel retardation assay to identify the location of proteins containing DNA binding activity using [^32P]-labeled ds-ISS-ODN as a probe. Fractions containing ISS-ODN binding activity were pooled (450 ml), buffered exchanged to low salt (50 mM KCl) and loaded onto a Heparin column (2 ml). The active fractions were subsequently loaded onto a 2 ml ds-ISS-ODN affinity column [CNBr-activated Sepharose 4B (Pharmacia) coupled to 320 μg of ds-ISS-ODNs with the sequence 5′-[…]-3′; SEQ ID NO: 21]. The column was washed with 8 ml of homogenization buffer containing 50 mM KCl and the bound proteins were eluted with a 20 ml linear gradient of 50 mM to 1.55 M KCl. One-ml fractions were collected and 2 μl of each were used to test for DNA binding activity. The active fractions were concentrated, separated by SDS-PAGE and stained with Coomassie Blue. The appearance of two bands with estimated molecular weights of 70 KDa and 80 KDa correlated with the DNA binding activity. Sequence analysis (Harvard Microsequencing Facility) of peptides derived from the two bands identified Ku70 and Ku80, respectively.
Mouse liver extracts were purified through anion (QE), heparin and ISS-based affinity chromatography, as described above. Two μl of each fraction (10 μg) were incubated with [^32 P]-labeled ds-ISS-ODN at 4° C. for 30 minutes. The samples were separated on a 5% acrylamide gel and the protein-DNA complexes were detected by autoradiography. […] The active fractions were separated by sodium dodecyl sulfate-polyacrylamide gel electrophoresis (SDS-PAGE), stained with Coomassie blue and micro-sequenced.
To verify the binding specificity of the Ku protein to ISS-ODN, inhibition studies were performed using cold ss or ds ISS or mutated (M, i.e., control) ODNs. Ten μg of fraction 20 from the affinity column were incubated with [^32P]-labeled ISS-ODN in the presence of unlabeled (0.1, 0.2 and 0.4 μg, respectively) ss-ISS-ODN (lanes 3-5), ds-ISS-ODN (lanes 7-9), ss-M-ODN (lanes 11-13) or ds-M-ODN (lanes 15-17).

DNA-PK = biological target: T2, DNA-PK (Mus musculus, UniProt P23475+P27641+P97313); assay: DNA-PK activity in treated BMDM by immune-complex kinase assay; assay type: cell-based, mice; conditions: wt BMDM
T2 construct: endogenous in cells; host or cells: mouse bone marrow-derived macrophages (BMDM)
Method: Kinase assays and immunoblotting were performed according to Li et al. ((1999) J. Exp. Med. 189:1839-1845). Briefly, BMDM were treated with ISS-ODN (5 μg/ml), M-ODN (5 μg/ml) on ps and po backbones as indicated, LPS-free bacterial DNA or methylated bacterial DNA (5 μg/ml), LPS-free calf thymus DNA (5 μg/ml), LPS (10 μg/ml) or TNFα (10 ng/ml) for the indicated time periods. Cell lysates were prepared and normalized by immunoblotting (IB) with anti-IKKα polyclonal antibodies (Santa Cruz, Santa Cruz Biotech Inc., Calif.), anti-IKKβ polyclonal antbodies (Santa Cruz) or anti-DNA-PKcs monoclonal antibodies (NeoMarker, Calif.). IκB kinase (IKK) complex or DNA-PK complex from 100 μg of the lysates were immunoprecipitated by anti-IKKα or by anti-DNA-PKcs antibodies. The kinase activities (KA) were determined by a kinase assay using the N-terminus of IκBα (for IKK) or the N-terminus of p53 (for DNA-PK) as a substrate as previously described. Wang et al. (1992) Proc. Natl. Acad. Sci. USA 89:4231-4235; Li et al.(1999), supra; and Hammarsten et al. (2000) J. Biol. Chem. 275:1541-1545.
To further determine whether ISS-ODN, po-ISS-ODN or bacterial DNA activate DNA-PK in cells, we treated BMDM from either wt or DNA-PKcs-deficient mice with ISS-ODN, po-ISS-ODN, bacterial DNA or LPS as a control.

Which “induction of HSP-70 gene transcription” value (HSP70; BMDM from IFN type 1 receptor knockout mice) does the source give for 5′-TGACTGTGAACGTTCGAGATGA-3′ [ISS-ODN] here?
The value was “did not result in induction of HSP-70”.

What about the “induction of inducible HSP-70 gene transcription” value (HSP70; BMDM, 10 μg/ml, 0-8 hours) of the same substance?
The value was “induces inducible HSP-70”.

And the “interaction of Ku with ODN” value [1]?
Its value is “specific interaction”.

What about the “time of peak DNA-PK activity” value (DNA-PK) of the same substance?
Its value is 1 h.

What about the “DNA-PK activity in cells” value (DNA-PK; 30-minute incubation) of the same substance?
Its value is “Considerable DNA-PK activity”.
